Data taken from publication PMC9616412, “Nebulized fusion inhibitory peptide protects cynomolgus macaques from measles virus infection” (Nature Communications, 2022).
“And” between values parts separate entries of the source, which are not always exact repeats. Equal entries are not always repeated.

Experiments:
[1] = Haematological parameters after nebulization; type: in vivo, cynomolgus macaques; conditions: noninfected animals, days 1, 2, 3, 6, 28 after nebulization
Experimental: (§1) Biochemical parameters in the plasma and cellular composition of the blood were evaluated immediately before treatment and 1, 2, 3, 6, and 28 days after nebulization of either saline or HRC4 peptide in non-infected and MeV-infected NHP, to search for early and late toxic effects of the aerosol delivery (Fig. 4). […] In both control and peptide group, few animals experienced transient increase of creatine kinase above physiological values[40] (Fig. 4a), which can be linked to intramuscular anesthesia, as described previously.

[2] = ELISA of anti-HRC4 antibodies (IgG, IgA, IgM) in serum; type: in vivo, cynomolgus macaques; conditions: for anti-HRC4 antibodies (IgG, IgA and IgM), ELISA, D28 minus day 0: serum 1:20, rep1-rep3
Experimental: (§2) Briefly, HRC4 was coated in carbonate buffer pH 9.2 overnight (1 μg /well). […] Rabbit anti-HRC4 Ab followed with anti-rabbit Ab coupled to HRP was used as a positive control. Evaluation of total IgE in the serum was performed using the monkey IgE kit (Ozyme) following the manufacturer’s recommendation.

MeV IC323-eGFP [3] = test: Class-unswitched and switched memory B cells by flow cytometry; conditions: HRC4-treated animals P1 and P3
Experimental: (§3) Whole blood was collected on EDTA, then transferred into BD vacutainer CPT tubes (after removal of anticoagulant solution from CPT tubes) and spun at 2500 g for 20 min. The PBMCs were collected and one-tenth were used to isolate RNA. […] Cells were acquired on a MACSQuant®10 flow cytometer (Miltenyi) and analyzed by FlowJo10.8 (Becton Dickinson) and Kaluza 2.1 (Beckman Coulter).

[4] = Lung histopathology (HE, HES; eosinophil infiltration); type: in vivo, cynomolgus macaques; conditions: for Lung eosinophil infiltration: HES staining
Experimental: Lung tissue samples were collected at necropsy and fixed by immersion in 10% neutral buffered formalin (Sigma) for a minimum of 14 days. The tissue samples were trimmed, processed and embedded in paraffin. 4 to 5 µm-thick sections were cut. For histopathology evaluation, slides were routinely stained with hematoxylin-eosin (HE) or with hematoxylin-eosin-saffron (HES). For the study of the pulmonary infiltration by eosinophils, the histopathologic evaluation was performed by a board-certified veterinary pathologist.
For hematoxylin-eosin staining, formalin-fixed tissues were processed and embedded in paraffin and tissue sections were then deparaffinized, rehydrated, rinsed, and placed in PBS before harrys hematoxylin staining (Diapath, diluted 1/3), washed with PBS and stained with eosin 1% (Sigma-Aldrich). Slide were washed with water dehydrated and mounted with DPX mounting medium (Sigma-Aldrich). For the study of eosinophils infiltration, slides were stained in addition with saffron and analysed by a board-certified veterinary pathologist.

[5] = ELISA of HRC4-specific IgE in serum; type: in vivo, cynomolgus macaques; conditions: up to 4 weeks after nebulization
Experimental: as §2

[6] = Immunofluorescence detection of HRC4 in lungs after nebulization; type: in vivo, cynomolgus macaques; conditions: lungs sampled 15 min, 16 h and 24 h after nebulization; anti-HRC4 immunofluorescence, all three lung regions
Experimental: To evaluate immediate HRC4 biodistribution into lungs, one animal from the MeV-infection experiment (C1) was nebulized with 3 ml (4 mg/ml) immediately after euthanasia under mechanical ventilation (Dräger Primus anesthesia machine). For mid-term biodistribution, animals were nebulized 24 h (C2) or 16 h (C3) before euthanasia.
To assess the bioavailability of the HRC4 peptide on lungs, sections were stained and imaged by confocal microscopy as described previously. Briefly, after being blocked and permeabilized in 0.1% TritonX100, 5% BSA solution, slices were sequentially incubated with a rabbit anti-HRC4 (Genscript) overnight at 4 °C and with a secondary donkey anti-rabbit alexa-555 (Thermo Fisher) diluted 1/500 and DAPI (1 µg/ml) for 1 h at room temperature. Slides were imaged using a Zeiss LSM800 confocal microscope and processed by ImageJ1.52p.

MeV IC323-eGFP [7] = test: ELISA of total MeV-specific immunoglobulin in serum; conditions: HRC4-treated animals P1 and P3
Experimental: Sera of MeV-infected NHPs were tested for the presence of anti-MeV antibodies by ELISA. Briefly, MeV nucleoprotein, produced as described previously[71] was coated onto 96-well ELISA plates overnight (1 μg /well). Plates were blocked using a mix of PBS 1X-Milk 5% for 30 min at room temperature. Serial dilutions (1:50 and then 1:3 serial dilutions until 1:2952450) were done in PBS 1X-Tween 0.05%-Milk and incubated 2 h at RT. […] Optical density was measured at 450 and 620 nm using an ELISA reader (Thermo Fisher) and the absorbance difference between 450 nm and 650 nm was determined and corrected for blank readings. The serum sample was considered positive when its value was higher than three times the average value obtained with the negative sera of the same dilution and the results were expressed as reciprocal value of the last serum dilution giving the measurable values.

MeV = test: Plaque reduction assay on Vero-hSLAM cells; conditions: fusion inhibition and plaque reduction in vitro before and after nebulization with mesh nebulizer
[8] = ELISA of total IgE in serum; type: in vivo, cynomolgus macaques; parameters: unit not given here; conditions: Peptide group
Experimental: as §2

MeV IC323-eGFP [9] = test: Serial passaging of MeV in presence of peptide and sequencing for escape variants; conditions: 1 µM peptide, Vero-hSLAM cells, 8 passages, sequencing of viral RNA
[10] = Laser diffraction and output measurement of the nebulized aerosol; type: physicochemical; conditions: HRC4 4 mg/ml, 3 ml, prototype mesh nebulizer, laser diffraction; mean +/- SD of four devices
Experimental: The aerodynamic performances of the aerosols generated by the prototype mesh nebulizer were determined by laser diffraction using a Spraytec™ instrument (Malvern Instruments Ltd., Malvern, UK) and the Spraytec inhalation cell (Malvern Instruments Ltd., Malvern, UK) connected to an aspiration carried out by a vacuum pump set to 30-50 L/min[70]. The prototype mesh nebulizers (n=4) were loaded with 3 ml of either NaCl 0.9% or the HCR4 peptide (4 mg/ml, dissolved as described above) and then connected to the inhalation cell. Nebulization duration was notified at the end of the complete aerosolization of the loaded 3 ml. Diffraction data and volume distribution were automatically registered by the Spraytec software.
The output of nebulizer was determined by the difference between the weight of the nebulizer before and after nebulization and was expressed in percentage of the loaded volume. The output rate of each nebulizer (in ml/min) was then determined as the ratio between the output and the nebulization duration. At least, the residual volume corresponding to the volume of liquid remaining in the reservoir at the end of the nebulization was also determined by weighting the nebulizer before loading it and after nebulization.

[11] = Biochemical parameters in plasma after nebulization; type: in vivo, cynomolgus macaques; conditions: noninfected animals, days 1, 2, 3, 6, 28 after nebulization
Experimental: as §1

[12] = Flow cytometry of major PBMC populations in blood; type: in vivo, cynomolgus macaques; conditions: compared to values before the nebulization
[13] = Clinical observation for adverse effects after nebulization; conditions: during the 28 days after peptide nebulization
MeV IC323-eGFP [14] = test: Viremia: GFP+ PBMC by flow cytometry
Experimental: as §3

## CC[C@H](C)[C@H](NC(=O)[C@H](C)NC(=O)[C@H](CC(N)=O)NC(=O)CNC(=O)[C@H](CC(C)C)NC(=O)[C@H](CC(N)=O)NC(=O)[C@@H](NC(=O)CNC(=O)[C@@H](NC(=O)[C@H](CC(=O)O)NC(=O)[C@H](CC(C)C)NC(=O)[C@H](CCCNC(=N)N)NC(=O)[C@H](CCC(=O)O)NC(=O)[C@H](CC(C)C)NC(=O)[C@H](CO)NC(=O)[C@@H](NC(=O)[C@@H]1CCCN1C(=O)[C@@H]1CCCN1)[C@@H](C)CC)C(C)C)[C@@H](C)O)C(=O)N[C@@H](C)C(=O)N[C@@H](CCCCN)C(=O)N[C@@H](CC(C)C)C(=O)N[C@@H](CCC(=O)O)C(=O)N[C@@H](CC(=O)O)C(=O)N[C@@H](C)C(=O)N[C@@H](CCCCN)C(=O)N[C@@H](CCC(=O)O)C(=O)N[C@@H](CC(C)C)C(=O)N[C@@H](CC(C)C)C(=O)N[C@@H](CCC(=O)O)C(=O)N[C@@H](CO)C(=O)N[C@@H](CO)C(=O)N[C@@H](CC(=O)O)C(=O)N[C@@H](CCC(N)=O)C(=O)N[C@H](C(=O)N[C@@H](CC(C)C)C(=O)N[C@@H](CCCNC(=N)N)C(=O)NCC(=O)N[C@@H](CO)C(=O)NCC(=O)N[C@@H](CO)C(=O)NCC(=O)N[C@@H](CSC1CC(=O)N(CCCC(=O)NCCOCCOCCOCCOCCC(=O)NCCN(CCNC(=O)CCOCCOCCOCCOCCNC(=O)CCCN2C(=O)CC(SC[C@H](NC(=O)CNC(=O)[C@H](CO)NC(=O)CNC(=O)[C@H](CO)NC(=O)CNC(=O)[C@H](CCCNC(=N)N)NC(=O)[C@H](CC(C)C)NC(=O)[C@@H](NC(=O)[C@H](CCC(N)=O)NC(=O)[C@H](CC(=O)O)NC(=O)[C@H](CO)NC(=O)[C@H](CO)NC(=O)[C@H](CCC(=O)O)NC(=O)[C@H](CC(C)C)NC(=O)[C@H](CC(C)C)NC(=O)[C@H](CCC(=O)O)NC(=O)[C@H](CCCCN)NC(=O)[C@H](C)NC(=O)[C@H](CC(=O)O)NC(=O)[C@H](CCC(=O)O)NC(=O)[C@H](CC(C)C)NC(=O)[C@H](CCCCN)NC(=O)[C@H](C)NC(=O)[C@@H](NC(=O)[C@H](C)NC(=O)[C@H](CC(N)=O)NC(=O)CNC(=O)[C@H](CC(C)C)NC(=O)[C@H](CC(N)=O)NC(=O)[C@@H](NC(=O)CNC(=O)[C@@H](NC(=O)[C@H](CC(=O)O)NC(=O)[C@H](CC(C)C)NC(=O)[C@H](CCCNC(=N)N)NC(=O)[C@H](CCC(=O)O)NC(=O)[C@H](CC(C)C)NC(=O)[C@H](CO)NC(=O)[C@@H](NC(=O)[C@@H]3CCCN3C(=O)[C@@H]3CCCN3)[C@@H](C)CC)C(C)C)[C@@H](C)O)[C@@H](C)CC)[C@@H](C)CC)C(=O)O)C2=O)CCO[C@H]2CC[C@@]3(C)C(=CC[C@H]4[C@@H]5CC[C@H]([C@H](C)CCCC(C)C)[C@@]5(C)CC[C@@H]43)C2)C1=O)C(=O)O)[C@@H](C)CC (stereo partly drawn) [HRC4]
[1]
  Hematological parameters: within the physiological levels
[2]; 28 days after nebulization
  HRC4 specific antibodies in serum: not found
[2]; animal P2
  anti-HRC4 antibodies (IgG, IgA and IgM), ELISA, D28 minus day 0: 0.2158 and 0.159 and 0.1449
[2]; animal P3
  anti-HRC4 antibodies (IgG, IgA and IgM), ELISA, D28 minus day 0: 0.0684 and 0.0721 and 0.0837
MeV IC323-eGFP [3]
  Memory B cell populations: remained stable without any noticeable increase
[4]; HRC4-treated animals P1 and P3
  Lung eosinophil infiltration: no eosinophil infiltration was visible
[4]; animals that developed MeV infection (incl. HRC4-treated P2)
  Lung eosinophil infiltration: minimal although noticeable eosinophil infiltration
[4]; lungs collected from nebulized animals
  Histological analysis of lungs: did not reveal any abnormalities
[5]
  HRC4-specific IgE in serum: did not reveal presence of any HRC4-specific IgE
[6]
  Deposition of HRC4 in lungs: presence of HRC4 within the alveoli surface area
MeV IC323-eGFP [7]
  Seroconversion: absence of seroconversion
MeV
  Loss of inhibitory activity by nebulization: did not cause any loss of activity
[8]; animal column 1, day 0 post nebulization
  Total IgE: 1.801
[8]; animal column 1, day 3 post nebulization
  Total IgE: 3.381
[8]; animal column 1, day 6 post nebulization
  Total IgE: 4.651
[8]; animal column 1, day 13 post nebulization
  Total IgE: 17.565
[8]; animal column 1, day 28 post nebulization
  Total IgE: 2.916
[8]; animal column 2, day 0 post nebulization
  Total IgE: 1.21
[8]; animal column 2, day 3 post nebulization
  Total IgE: 1.735
[8]; animal column 2, day 6 post nebulization
  Total IgE: 1.034
[8]; animal column 2, day 13 post nebulization
  Total IgE: 2.308
[8]; animal column 2, day 28 post nebulization
  Total IgE: 3.192
[8]; animal column 3, day 0 post nebulization
  Total IgE: 3.017
[8]; animal column 3, day 3 post nebulization
  Total IgE: 5.929
[8]; animal column 3, day 6 post nebulization
  Total IgE: 6.63
[8]; animal column 3, day 13 post nebulization
  Total IgE: 5.888
[8]; animal column 3, day 28 post nebulization
  Total IgE: 1.999
MeV IC323-eGFP [9]
  Mutations in MeV F after serial passage in presence of peptide: no mutations were identified
[10]
  < 2µm: 13.9 +/- 2.0%
  < 5µm: 57.4 +/- 3.9%
  VMD: 4.43 +/- 0.26 µm
[11]
  Biochemical parameters in plasma: within the physiological levels
[12]
  Composition of major PBMC populations in blood: did not reveal any significant changes
[13]
  Adverse effects (pyrexia, allergic reaction): no adverse effects
MeV IC323-eGFP [14]; HRC4-treated animal P2 (co-housed with C3)
  Duration of viremia: 6 days
MeV IC323-eGFP [14]; HRC4-treated animal P2, day 9 p.i.
  Infection of PBMCs by flow cytometry: low level
